From patent US20140004223A1, “MOUTH-MOISTENING GUM COMPOSITIONS AND PRODUCTS CONTAINING THE SAME” (Three Parkway North, priority 2010, published 2014)

Key:
water solubility = assay type: physicochemical
Source text: In some embodiments, one or more ingredients may be encapsulated with an encapsulating material can also modify the release profile of the ingredient.

[1] = taste testing of synthetic compound versus plant extracts; assay type: in vivo; conditions: based on taste testing, compared with some comparable plant extracts
Source text: Synthetic (2E,5Z,8E)-deca-2,6,8-trienoic acid N-isobutyl amide, being more pure than botanical sources, can be distinguished to some extent based on taste sensations. Synthetic (2E,5Z,8E)-deca-2,6,8-trienoic acid N-isobutyl amide can have a purity of at least about 90 percent. In some embodiments, synthetic (2E,5Z,8E)-deca-2,6,8-trienoic acid N-isobutyl amide can provide relatively higher mouth-moistening relative to tingling or heating/cooling sensations, compared to, for example, equivalent amounts of spilanthol in jambu. […] In one embodiment a combination of synthetic (2E,5Z,8E)-deca-2,6,8-trienoic acid N-isobutyl amide and a affinin plant extract is used. For example, within the given range of 75 to 300 ppm the affinin compound, the amount of affinin active provided by synthetic (2E,5Z,8E)-deca-2,6,8-trienoic acid N-isobutyl amide can vary from 20 to 80 wt. % and the amount of (2E,5Z,8E)-deca-2,6,8-trienoic acid N-isobutyl amide provided by plant extract of Heliopsis Longipes can vary from 80 to 20 wt. %.

SMILES: C/C=C/C=C\CC/C=C/C(=O)NCC(C)C [affinin compound, (2E,5Z,8E)-deca-2,6,8-trienoic acid N-isobutyl amide]
- water solubility (water solubility): not water soluble
- taste profile / tingling [1]: a cleaner profile and/or less tingling
